# Counter-ions that a name gives are not always drawn.
# Tests used:
# [1] = tested on: Neisseria gonorrhoeae A15112
# [2] = tested on: Propionibacterium acnes A21933; conditions: Cutibacterium acnes
# [3] = tested on: Staphylococcus aureus Smith; test: In vivo efficacy in infected mice; parameters: species or system Staphylococcus aureus; mice; conditions: for ED50: Staphylococcus aureus, im, 100×LD50 challenge in 5% hog gastric mucin, i.m. just before challenge, read-out: PD50
# [4] = tested on: C. perfringens A9635; test: microbe, parasite or virus in culture; assay type: cell-based; conditions: Clostridium perfringens
# [5] = tested on: Bacillus subtilis PCI 219; conditions: PCI219
# [6] = tested on: Bacteroides fragilis A22693
# [7] = tested on: Streptococcus pyogenes S-23; conditions: S23
# [8] = tested on: S. pneumoniae IID; conditions: Streptococcus pneumoniae
# [9] = tested on: S. aureus A20239; assay type: cell-based; conditions: Staphylococcus aureus, Nutrient agar (Eiken), kanamycin-resistant
# [10] = tested on: M. smegmatis 607 D46; assay type: cell-based, Mycobacterium smegmatis; conditions: Mycolicibacterium smegmatis, Nutrient agar (Eiken), kanamycin-resistant
# [11] = tested on: S. aureus A22421; assay type: cell-based; conditions: Staphylococcus aureus, Nutrient agar (Eiken), methicillin-resistant
# [12] = tested on: Klebsiella pneumoniae D-11; conditions: D11
# [13] = tested on: Pseudomonas aeruginosa D-113; conditions: D113
# [14] = tested on: B. fragilis A22534; assay type: cell-based; conditions: Bacteroides fragilis, GA agar (Nissui), lactamase producer
# [15] = tested on: S. aureus BX-1633; assay type: cell-based; conditions: Staphylococcus aureus, BX1633; Nutrient agar (Eiken); lactamase producer
# [16] = tested on: Clostridium difficile A21675; assay type: cell-based; conditions: Clostridioides difficile, GA agar (Nissui), clindamycin-resistant
# [17] = tested on: M. phlei D88; conditions: Mycolicibacterium phlei
# [18] = tested on: Haemophilus influenzae A9729
# [19] = tested on: Mycobacterium smegmatis 607; conditions: Mycolicibacterium smegmatis
# [20] = tested on: Peptostreptococcus anaerobius A21905
# [21] = assay type: physicochemical
# [22] = tested on: E. coli NIHJ; test: Effect of pH on antimicrobial activity (MIC, Table 8); assay type: cell-based; conditions: Escherichia coli
# [23] = tested on: P. acnes A21933; test: as above; assay type: cell-based, Propionibacterium acnes; conditions: Cutibacterium acnes
# [24] = tested on: K. pneumoniae D11; test: as above; assay type: cell-based; conditions: Klebsiella pneumoniae
# [25] = tested on: B. subtilis PCI 219; test: as above; assay type: cell-based; conditions: Bacillus subtilis
# [26] = tested on: B. fragilis A20926; test: as above; assay type: cell-based; conditions: Bacteroides fragilis
# [27] = tested on: S. necrophorus A15202; test: as above; assay type: cell-based; conditions: Fusobacterium necrophorum
# [28] = tested on: C. perfringens A9635; test: microbe, parasite or virus in culture; assay type: cell-based; conditions: Clostridium perfringens; remark: listed apart in the source
# [29] = Acidity; assay type: physicochemical
# [30] = tested on: Clostridium perfringens A9635; test: animal or person; assay type: in vivo, Clostridium perfringens; mice
# [31] = Toxicity, i.m.; conditions: up to a dose of 400 mg/kg (i.m.)
smiles,measurement,setting,value
"NC[C@H]1O[C@H](O[C@H]2[C@H](O)[C@@H](O[C@H]3O[C@H](CO)[C@@H](O)[C@H](N)[C@H]3O)[C@H](N)C[C@@H]2N)[C@H](O)[C@@H](O)[C@@H]1O [Kanamycin, kanamycin, reference compound]",MIC,[1],0.4 µg/mL
same,MIC,[2],> 50 µg/mL
same,ED50,[3],1.4 mg/kg
same,MIC,[4],> 50 µg/mL
same,MIC,[5],0.2 µg/mL
same,MIC,[6],50 µg/mL
same,MIC,[7],25 µg/mL
same,MIC,[8],25 µg/mL
same,MIC,[9],> 100 µg/mL
same,MIC,[10],> 100 µg/mL
same,MIC,[11],0.8 µg/mL
same,MIC,[12],0.4 µg/mL
same,MIC,[13],25 µg/mL
same,MIC,[14],50 µg/mL
same,MIC,[15],0.8 µg/mL
same,MIC,[16],> 50 µg/mL
same,MIC,[17],1.6 µg/mL
same,MIC,[18],0.4 µg/mL
same,MIC,[19],0.8 µg/mL
same,MIC,[20],> 50 µg/mL
Cc1cc(O)c(C(N)=O)c2nc(-c3nc(CO)ncc3O)oc12 [Boxazomycin A di-sodium salt],solubility in water,[21],soluble in water
Cc1ncc(O)c(-c2nc3c(C(N)=O)c(O)cc(C)c3o2)n1 [Boxazomycin B],MIC,[22]; pH 6,> 100 µg/mL
same,MIC,[22]; pH 7,> 100 µg/mL
same,MIC,[1],> 100 µg/mL
same,MIC,[2],6.3 µg/mL
same,MIC,"[23]; A21933, pH 6",0.2 µg/mL
same,MIC,"[23]; A21933, pH 7",6.3 µg/mL
same,MIC,[4],12.5 µg/mL
same,solubility in alkaline water and dimethylformamide,[21],readily soluble
same,"solubility in ethyl acetate, chloroform, benzene and n-hexane",[21],practically insoluble
same,"solubility in water, methanol, ethanol and acetone",[21],slightly soluble
same,MIC,[5],1.6 µg/mL
same,MIC,[6],12.5 µg/mL
same,MIC,[7],12.5 µg/mL
same,MIC,[8],25 µg/mL
same,MIC,"[24]; D11, pH 6",> 100 µg/mL
same,MIC,"[24]; D11, pH 7",> 100 µg/mL
same,MIC,"[25]; PCI219, pH 6",0.2 µg/mL
same,MIC,"[25]; PCI219, pH 7",1.6 µg/mL
same,MIC,"[26]; A20926, pH 6",0.1 µg/mL
same,MIC,"[26]; A20926, pH 7",3.1 µg/mL
same,MIC,[9],0.8 µg/mL
same,MIC,[10],3.1 µg/mL
same,MIC,[11],0.8 µg/mL
same,MIC,"[27]; A15202, pH 6",0.4 µg/mL
same,MIC,"[27]; A15202, pH 7",6.3 µg/mL
same,MIC,[12],> 100 µg/mL
same,MIC,[13],> 100 µg/mL
same,MIC,[14],12.5 µg/mL
same,MIC,[15],0.8 µg/mL
same,MIC,[16],6.3 µg/mL
same,MIC,[17],1.6 µg/mL
same,MIC,[18],> 100 µg/mL
same,MIC,"[28]; A9635, pH 6",0.4 µg/mL
same,MIC,"[28]; A9635, pH 7",6.3 µg/mL
same,MIC,[19],3.1 µg/mL
same,MIC,[20],6.3 µg/mL
same,acidity,[29],weakly acidic
Cc1cc(O)c(C(N)=O)c2nc(-c3nc(CO)ncc3O)oc12 [Boxazomycin A],MIC,[22]; pH 6,> 100 µg/mL
same,MIC,[22]; pH 7,> 100 µg/mL
same,MIC,[1],> 100 µg/mL
same,MIC,[2],3.1 µg/mL
same,ED50,[3],400 mg/kg
same,in vivo efficacy relative to in vitro activity,[3]; i.m.,lower than that expected from its in vitro activity
same,protective effect,[3]; i.m.,protective effect in mice against both infections
same,MIC,"[23]; A21933, pH 6",0.4 µg/mL
same,MIC,"[23]; A21933, pH 7",6.3 µg/mL
same,MIC,[4],3.1 µg/mL
same,solubility in alkaline water and dimethylformamide,[21],readily soluble
same,"solubility in ethyl acetate, chloroform, benzene and n-hexane",[21],practically insoluble
same,"solubility in water, methanol, ethanol and acetone",[21],slightly soluble
same,MIC,[5],3.1 µg/mL
same,MIC,[6],6.3 µg/mL
same,MIC,[7],3.1 µg/mL
same,MIC,[8],3.1 µg/mL
same,MIC,"[24]; D11, pH 6",> 100 µg/mL
same,MIC,"[24]; D11, pH 7",> 100 µg/mL
same,MIC,"[25]; PCI219, pH 6",0.8 µg/mL
same,MIC,"[25]; PCI219, pH 7",6.3 µg/mL
same,MIC,"[26]; A20926, pH 6",0.05 µg/mL
same,MIC,"[26]; A20926, pH 7",3.1 µg/mL
same,MIC,[9],0.4 µg/mL
same,MIC,[10],1.6 µg/mL
same,MIC,[11],0.8 µg/mL
same,MIC,"[27]; A15202, pH 6",0.4 µg/mL
same,MIC,"[27]; A15202, pH 7",3.1 µg/mL
same,ED50,"[30]; Clostridium perfringens, A9635, in Mus musculus, im, read-out: PD50",220 mg/kg
same,in vivo efficacy relative to in vitro activity,"[30]; mice, i.m.",lower than that expected from its in vitro activity
same,protective effect,"[30]; mice, i.m.",protective effect in mice against both infections
same,MIC,[12],> 100 µg/mL
same,MIC,[13],> 100 µg/mL
same,toxic symptoms,[31],did not show any toxic symptoms up to a dose of 400 mg/kg (i.m.)
same,MIC,[14],3.1 µg/mL
same,MIC,[15],0.8 µg/mL
same,MIC,[16],3.1 µg/mL
same,MIC,[17],0.8 µg/mL
same,MIC,[18],> 100 µg/mL
same,MIC,"[28]; A9635, pH 6",0.2 µg/mL
same,MIC,"[28]; A9635, pH 7",3.1 µg/mL
same,MIC,[19],1.6 µg/mL
same,MIC,[20],3.1 µg/mL
same,acidity,[29],weakly acidic

# Reference: patent publication US4690926A, “Boxazomycin A and B, new antibiotics containing benzoxazole nucleus” (Bristol-Myers Company, priority 1986, dated 1987)
